Laboratory results reported in US5789431A, “Naphthoquinone antitumor compound and method” (The University of North Carolina at Chapel Hill, priority 1996, dated 1998).
Like-named read-outs stand apart in the source and are kept apart here.

Key:
OVCAR-5 = assay: in vitro ovarian cancer cell growth inhibition (NCI screen)
IGROV1 = assay: as above
M14 = assay: in vitro melanoma cell growth inhibition (NCI screen)
HCC-2998 = assay: in vitro colon cancer cell growth inhibition (NCI screen)
UACC-257 = assay: in vitro melanoma cell growth inhibition (NCI screen)
HCT-116 = assay: in vitro colon cancer cell growth inhibition (NCI screen)
NCI-H23 = assay: in vitro non-small cell lung cancer cell growth inhibition (NCI screen)
MCF-7 = assay: in vitro breast cancer cell growth inhibition (NCI screen)
UACC-62 = assay: in vitro melanoma cell growth inhibition (NCI screen)
SK-MEL-28 = assay: as above
MDA-N = assay: in vitro breast cancer cell growth inhibition (NCI screen)
MDA-MB-435 = assay: as above
NCI-H460 = assay: in vitro non-small cell lung cancer cell growth inhibition (NCI screen)
OVCAR-4 = assay: in vitro ovarian cancer cell growth inhibition (NCI screen); conditions: OVACR-4
BT-549 = assay: in vitro breast cancer cell growth inhibition (NCI screen)
OVCAR-3 = assay: in vitro ovarian cancer cell growth inhibition (NCI screen)
SF-539 = assay: in vitro CNS cancer cell growth inhibition (NCI screen)
SK-MEL-2 = assay: in vitro melanoma cell growth inhibition (NCI screen)
DU-145 = assay: in vitro prostate cancer cell growth inhibition (NCI screen)
MALME-3M = assay: in vitro melanoma cell growth inhibition (NCI screen)
SR = assay: in vitro leukemia cell growth inhibition (NCI screen)
NCI-H522 = assay: in vitro non-small cell lung cancer cell growth inhibition (NCI screen)
human tumor cell lines = type: cell-based; conditions: for GI50: Homo sapiens
K-562 [1] = assay: in vitro leukemia cell growth inhibition (NCI screen)
HCT-15 = assay: in vitro colon cancer cell growth inhibition (NCI screen)
KM 20L2 = assay: as above
LOX1MVI = assay: in vitro melanoma cell growth inhibition (NCI screen)
MOLT-4 [2] = assay: in vitro leukemia cell growth inhibition (NCI screen)
DLD-1 = assay: in vitro colon cancer cell growth inhibition (NCI screen)
LXFL 529 = assay: in vitro non-small cell lung cancer cell growth inhibition (NCI screen)
U 251 = assay: in vitro CNS cancer cell growth inhibition (NCI screen)
HT 29 = assay: in vitro colon cancer cell growth inhibition (NCI screen)
CCRF-CEM [3] = assay: in vitro leukemia cell growth inhibition (NCI screen)
HL-60(TB) = assay: as above
OVCAR-8 = assay: in vitro ovarian cancer cell growth inhibition (NCI screen)
786-0 = assay: in vitro renal cancer cell growth inhibition (NCI screen)
SF-268 = assay: in vitro CNS cancer cell growth inhibition (NCI screen)
SNB-78 = assay: as above
M19-MEL = assay: in vitro melanoma cell growth inhibition (NCI screen)
RXF-393 = assay: in vitro renal cancer cell growth inhibition (NCI screen)
HS 578T = assay: in vitro breast cancer cell growth inhibition (NCI screen)
SF-295 = assay: in vitro CNS cancer cell growth inhibition (NCI screen)
SNB-75 = assay: as above
SK-OV-3 = assay: in vitro ovarian cancer cell growth inhibition (NCI screen)
COLO-205 = assay: in vitro colon cancer cell growth inhibition (NCI screen)
KB cells = assay: in vitro cytotoxicity screening against KB cells in culture; type: cell-based; conditions: Homo sapiens, calculated from 2 data points across 50% inhibition in cell growth, read-out: ED50 (the source's name)
Protocol: Compound 5 was assayed for in vitro cytotoxicity against KB cells in culture, following the protocol of Monks. The KB cell line was obtained from the American Type Culture Collection, Rockville, MD, and cells were adapted to grow in antibiotic-free RPMI-1640 medium supplemented with […] calf serum.
The ED50 value was calculated mathematically from 2 data points across 50% inhibition in cell growth.

KM 12 = assay: in vitro colon cancer cell growth inhibition (NCI screen)
HOP-92 = assay: in vitro non-small cell lung cancer cell growth inhibition (NCI screen)
SW 620 = assay: in vitro colon cancer cell growth inhibition (NCI screen)
T-47D = assay: in vitro breast cancer cell growth inhibition (NCI screen)
MOLT-4 [4] = conditions: human, molt-4 cells
PC-3 = assay: in vitro prostate cancer cell growth inhibition (NCI screen)
SK-MEL-5 = assay: in vitro melanoma cell growth inhibition (NCI screen)
K-562 [5] = conditions: human, k-562 cells
CCRF-CEM [6] = conditions: human, ccrf-cem cells
[7] = cancer cell panel, general / most cell lines, read-out: logGI50 values in the cancer cell line panel (converted)

Row | Structure (SMILES) | cytotoxicity log GI50 (OVCAR-5) [M] | cytotoxicity log GI50 (M14) [M] | cytotoxicity log GI50 (UACC-257) [M] | cytotoxicity log GI50 (HCT-116) [M] | cytotoxicity log GI50 (NCI-H23) [M] | cytotoxicity log GI50 (MCF-7) [M] | cytotoxicity log GI50 (UACC-62) [M] | cytotoxicity log GI50 (MDA-N) [M] | cytotoxicity log GI50 (MDA-MB-435) [M] | cytotoxicity log GI50 (NCI-H460) [M] | cytotoxicity log GI50 (OVCAR-4) [M] | cytotoxicity log GI50 (OVCAR-3) [M] | cytotoxicity log GI50 (SF-539) [M] | cytotoxicity log GI50 (MALME-3M) [M] | cytotoxicity log GI50 (NCI-H522) [M] | cytotoxicity log GI50 (U 251) [M] | cytotoxicity log GI50 (HT 29) [M] | cytotoxicity log GI50 (OVCAR-8) [M] | cytotoxicity log GI50 (786-0) [M] | cytotoxicity log GI50 (SF-268) [M] | also measured
1 | COC(=O)CCCC(=O)NC1=C(Nc2ccc(OC)cc2)C(=O)c2ccccc2C1=O [Compound 53] | -4.73 | -4.71 | -4.74 | -4.71 | -4.69 | -4.77 | -4.89 | -4.68 | -4.74 | -4.80 | -4.75 | -5.20 | -4.71 | -5.47 | – | – | – | – | – | – | cytotoxicity log GI50 (IGROV1): -4.74 M; cytotoxicity log GI50 (HCC-2998): -4.69 M; cytotoxicity log GI50 (SK-MEL-28): -4.68 M; cytotoxicity log GI50 (BT-549): -4.71 M; cytotoxicity log GI50 (SK-MEL-2): -4.75 M; cytotoxicity log GI50 (DU-145): -4.79 M
2 | Cc1nc2c(n1Cc1ccc(Cl)cc1)C(=O)c1ccccc1C2=O [Compound 20] | – | – | – | -5.59 | – | – | -5.47 | – | – | -5.76 | – | – | -5.60 | – | -5.26 | -5.46 | -5.39 | -5.05 | -5.25 | -5.29 | cytotoxicity log GI50 (SR): -5.88 M; GI50 (human tumor cell lines; non-small cell lung, CNS, melanoma, colon, leukemia, small cell lung, and renal cancer cell lines, read-out: logGI50 values (range over cell lines) (converted)): 1 to 10 µM; cytotoxicity log GI50 (K-562 [1]): -5.69 M; cytotoxicity log GI50 (HCT-15): -5.97 M; cytotoxicity log GI50 (KM 20L2): -5.09 M; cytotoxicity log GI50 (LOX1MVI): -5.69 M; cytotoxicity log GI50 (MOLT-4 [2]): -5.50 M; cytotoxicity log GI50 (DLD-1): -5.38 M; cytotoxicity log GI50 (LXFL 529): -5.26 M; cytotoxicity log GI50 (CCRF-CEM [3]): -5.33 M; cytotoxicity log GI50 (HL-60(TB)): -5.36 M; cytotoxicity log GI50 (SNB-78): -5.03 M; cytotoxicity log GI50 (M19-MEL): -4.93 M
3 | CCn1c(-c2cc(OC)cc(OC)c2)nc2c1C(=O)c1ccccc1C2=O [Compound 28] | – | – | – | – | – | – | -4.69 | – | – | – | – | – | – | – | -5.19 | – | – | – | -4.34 | – | GI50 (human tumor cell lines; [7]): ~10 µM; cytotoxicity log GI50 (RXF-393): -4.86 M; cytotoxicity log GI50 (HS 578T): -4.44 M; cytotoxicity log GI50 (SF-295): -4.53 M; cytotoxicity log GI50 (SNB-75): -4.65 M; cytotoxicity log GI50 (SK-OV-3): -5.41 M
4 | CCn1c(C)nc2c1C(=O)c1ccccc1C2=O [Compound 5, 1-ethyl-2-methylnaphth-[2,3-d]imidazole-4,9-dione] | -6.11 | – | – | -5.91 | -5.81 | -6.17 | – | – | – | – | -6.49 | -7.30 | – | – | -6.62 | -5.72 | – | -6.31 | – | -6.48 | cytotoxicity log GI50 (COLO-205): -6.45 M; GI50 (human tumor cell lines; OVCAR-3, -4, -5, and -8 ovarian cancer cell lines, read-out: logGI50 values (range over cell lines) (converted)): 0.0501 to 0.794 µM; GI50 (human tumor cell lines; [7]): 0.1 to 1 µM; cytotoxicity against tumor cells (in words) (human tumor cell lines; cancer cell line panel): most active naphth[2,3-d]imidazole-4,9-dione derivative; IC50 (KB cells): < 0.4 µg/mL; cytotoxicity log GI50 (KM 12): -5.76 M; cytotoxicity log GI50 (HOP-92): -5.79 M; cytotoxicity log GI50 (SW 620): -6.17 M
5 | CC(=O)NC1=C(NCCCl)C(=O)c2ccccc2C1=O [Compound 43] | – | -4.89 | -4.82 | -4.69 | -4.58 | – | -4.70 | -4.67 | -4.78 | – | – | – | – | -4.86 | -4.69 | – | -4.58 | -4.70 | – | – | cytotoxicity log GI50 (COLO-205): -4.55 M; cytotoxicity log GI50 (T-47D): -4.60 M; cytotoxicity log GI50 (MOLT-4 [4]): -4.60 M; cytotoxicity log GI50 (PC-3): -4.65 M; cytotoxicity log GI50 (SNB-75): -4.61 M; cytotoxicity log GI50 (SW 620): -4.60 M; cytotoxicity log GI50 (SK-MEL-5): -4.77 M; cytotoxicity log GI50 (K-562 [5]): -4.55 M; cytotoxicity log GI50 (CCRF-CEM [6]): -4.72 M
